Source: patent US20040053913A1, “Process for preparing 6-alkylidene penem derivatives” (priority 2002, published 2004)
Counter-ions that a name gives are not always drawn.

Columns and labels:
[1] = molecular target: class C enzyme AmpC from Enterobacter cloaca (Enterobacter cloacae, UniProt P05364); experiment: β-Lactamase inhibition, spectrophotometric nitrocefin hydrolysis assay, AmpC; assay type: biochemical; settings: enzyme 2.1 nM; 10 minutes preincubation at 25° C.; nitrocefin 50 μg/ml; 50 mM PO4, pH 7.0; read-out: IC50 (nM) Amp-C
class C enzyme AmpC from Enterobacter cloaca, sequence (P05364 21-381): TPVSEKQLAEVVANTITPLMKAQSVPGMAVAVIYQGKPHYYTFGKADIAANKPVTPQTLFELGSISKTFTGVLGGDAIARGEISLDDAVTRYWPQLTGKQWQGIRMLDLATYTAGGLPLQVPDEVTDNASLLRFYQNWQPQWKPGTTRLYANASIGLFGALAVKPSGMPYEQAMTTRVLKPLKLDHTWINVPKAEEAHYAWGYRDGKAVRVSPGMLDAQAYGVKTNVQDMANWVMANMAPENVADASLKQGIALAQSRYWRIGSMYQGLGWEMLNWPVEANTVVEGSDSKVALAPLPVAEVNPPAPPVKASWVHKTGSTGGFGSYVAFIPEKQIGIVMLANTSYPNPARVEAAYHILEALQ
Experimental: (§1) IC50 Determination for the Penem Inhibitor
(§2) β-Lactamase inhibitory activity of the penem inhibitors was determined spectrophotometrically as described by Bush et al., [Bush, K., Macalintal, C., Rasmussen, B. A., Lee, V. and Yang, Y. Antimicrobial Agents and Chemotherapy 1993, 37, 851]. Homogeneously purified class A β-lactamases TEM-1 from E. coli and Imi-1 from Enterobacter cloacae, class B enzyme CcrA from Bacteroides fragilis and class C enzyme AmpC from Enterobacter cloaca were employed in the assay. The enzyme concentrations for TEM-1, Imi-1, CcrA and AmpC were 4.3, 7.1, 1.2 and 2.1 nM, respectively. A wide range of inhibitor concentrations were prepared in 50 mM PO4, pH 7.0 to include the possible IC50 values. The substrate used to initiate the enzyme reaction was nitrocefin at 50 μg/ml in the same buffer as the inhibitor. Initially the enzyme and inhibitor (20 μl each) were preincubated for 10 minutes at 25° C. prior to the addition of 160 μl volume of nitrocefin. Initial rates of hydrolysis were monitored for 5 minutes at 495 nm using a Molecular Devices Spectra Max 250 with kinetic protocol of SoftMax Program. Readings from the Spectra Max 250 were exported and transferred to Microsoft Excel. The percent of inhibition of each inhibitor concentration was calculated based on the control enzyme activity. The inhibitor concentration that caused a 50% reduction in the enzymatic activity (IC50) was determined graphically.

[2] = molecular target: class A β-lactamase Imi-1 from Enterobacter cloacae (Enterobacter cloacae, UniProt Q46991); experiment: β-Lactamase inhibition, spectrophotometric nitrocefin hydrolysis assay, Imi-1; assay type: biochemical; settings: enzyme 7.1 nM; 10 minutes preincubation at 25° C.; nitrocefin 50 μg/ml; 50 mM PO4, pH 7.0
class A β-lactamase Imi-1 from Enterobacter cloacae, sequence (Q46991 entry or part of it): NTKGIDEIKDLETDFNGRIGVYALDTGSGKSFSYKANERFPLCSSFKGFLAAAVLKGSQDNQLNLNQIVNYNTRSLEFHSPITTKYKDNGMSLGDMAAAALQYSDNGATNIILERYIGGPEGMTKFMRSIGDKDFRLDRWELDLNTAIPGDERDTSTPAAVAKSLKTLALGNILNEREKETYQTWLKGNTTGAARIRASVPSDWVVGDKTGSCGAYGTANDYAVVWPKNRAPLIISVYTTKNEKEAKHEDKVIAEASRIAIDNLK
Experimental: as §1, §2

[3] = molecular target: class A β-lactamases TEM-1 from E. coli (Escherichia coli, UniProt P62593); experiment: β-Lactamase inhibition, spectrophotometric nitrocefin hydrolysis assay, TEM-1; assay type: biochemical; settings: enzyme 4.3 nM; 10 minutes preincubation at 25° C.; nitrocefin 50 μg/ml; 50 mM PO4, pH 7.0
class A β-lactamases TEM-1 from E. coli, sequence (P62593 24-286 limits assumed): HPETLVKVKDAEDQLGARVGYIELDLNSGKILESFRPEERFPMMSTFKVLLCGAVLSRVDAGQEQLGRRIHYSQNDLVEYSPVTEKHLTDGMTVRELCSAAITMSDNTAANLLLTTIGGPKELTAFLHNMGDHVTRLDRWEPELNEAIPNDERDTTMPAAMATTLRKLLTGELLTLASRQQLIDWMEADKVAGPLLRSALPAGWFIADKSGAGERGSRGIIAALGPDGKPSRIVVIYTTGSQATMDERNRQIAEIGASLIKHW
Experimental: as §1, §2

[4] = molecular target: class B enzyme CcrA from Bacteroides fragilis (Bacteroides fragilis, UniProt P25910); experiment: β-Lactamase inhibition, spectrophotometric nitrocefin hydrolysis assay, CcrA; assay type: biochemical; settings: enzyme 1.2 nM; 10 minutes preincubation at 25° C.; nitrocefin 50 μg/ml; 50 mM PO4, pH 7.0; read-out: IC50 (nM) Ccr-A
class B enzyme CcrA from Bacteroides fragilis, sequence (P25910 19-249): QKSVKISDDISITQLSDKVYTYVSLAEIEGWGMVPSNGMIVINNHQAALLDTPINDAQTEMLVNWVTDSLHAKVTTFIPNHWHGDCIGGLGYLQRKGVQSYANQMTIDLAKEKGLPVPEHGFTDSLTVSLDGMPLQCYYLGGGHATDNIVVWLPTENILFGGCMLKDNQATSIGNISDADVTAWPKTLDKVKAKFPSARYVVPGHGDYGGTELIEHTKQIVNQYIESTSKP
Experimental: as §1, §2

[5] = Comparative thermal stability in a solid state, residual ratio checked by HPLC; assay type: physicochemical; settings: for Residual Ratio (%): Temp. 40° C. in a solid state, HPLC
From the text: One important aspect of the present invention relates to the use of stable bromopenem intermediate 16. The stability of the intermediate is relevant to the aldol condensation step where the decomposition is minimized [as well as to the shelf life stability]. In this invention the key intermediate 16, where R=para-Nitrobenzyl group is a stable and a crystalline intermediate. […] (Table 1) This remarkable stability of intermediate 16 enhances the shelf-life time of the compound as well as the scale-up feasibility. As mentioned above, protection of carboxyl group with para-Nitrobenzyl group reduces the number of steps in the present process of preparing the final compound of structure I. The crystalline nature of the intermediate was established by X-ray diffraction studies.
Column: Inertsil SIL 100-5 4.6×150 mm (GL Science Inc.)
Mobile phase; Ethylacetae: n-hexane (10:35 vv)
Wave length: […]; Flow rate: 1.0 ml/min @ Room temperature.

Molecule: O=C(O)C1=CS[C@@H]2/C(=C\c3c[nH]c(Cc4ccccc4)n3)C(=O)N12 [Example 3, (5R), (6Z)-6-(2-Benzyl-1H-imidazol-4-ylmethylene)-7-oxo-4-thia-1-aza-bicyclo[3.2.0]hept-2-ene-2-carboxylic Acid Sodium Salt]
- IC50 [1]: 0.8 nM
- IC50 [2]: 1300 nM
- IC50 [3]: 1.2 nM
- IC50 [4]: 190 nM

Molecule: O=C(O)C1=CS[C@@H]2/C(=C\c3c[nH]c(-c4nccs4)n3)C(=O)N12 [Example 4, (5R), (6Z)-6-(2-thiazol-2-yl-1H-imidazol-4-ylmethylene)-7-oxo-4-thia-1-aza-bicyclo[3.2.0]hept-2-ene-2-carboxylic Acid Sodium Salt]
- IC50 [1]: 2.3 nM
- IC50 [2]: 5.8 nM
- IC50 [3]: 0.4 nM
- IC50 [4]: 230 nM

Molecule: O=C(O)C1=CS[C@@H]2/C(=C\c3c[nH]c(-c4ccccc4)n3)C(=O)N12 [Example 6, (5R), (6Z)-6-(2-phenyl-1H-imidazol-4-ylmethylene)-7-oxo-4-thia-1-aza-bicyclo[3.2.0]hept-2-ene-2-carboxylic Acid]
- IC50 [1]: 2.9 nM
- IC50 [2]: 11 nM
- IC50 [3]: 5.6 nM
- IC50 [4]: 220 nM

Molecule: O=C(OCc1ccc([N+](=O)[O-])cc1)C1=CS[C@@H]2[C@@H](Br)C(=O)N12 [Example 16]
- comparative thermal stability (in words) ([5]; intermediate 16 versus intermediate Q): more stable than the intermediate Q

Molecule: O=C(OCc1ccc([N+](=O)[O-])cc1)C1=CS[C@@H]2[C@@H](Br)C(=O)N12 [Formula 16, 4-nitrobenzyl (5R,6S)-6-bromopenem-3-carboxylate]
- Residual Ratio (%) ([5]; Day 0): 100.0%
- Residual Ratio (%) ([5]; Day 1): 100.0%
- Residual Ratio (%) ([5]; Day 2): 100.0%
- Residual Ratio (%) ([5]; Day 4): 100.0%
- Residual Ratio (%) ([5]; Day 7): 98.7%
- Residual Ratio (%) ([5]; Day 14): 98.4%

Molecule: COc1ccc(COC(=O)C2=CS[C@@H]3[C@@H](Br)C(=O)N23)cc1 [Formula Q, reference compound]
- Residual Ratio (%) ([5]; Day 0): 100.0%
- Residual Ratio (%) ([5]; Day 1): 99.7%
- Residual Ratio (%) ([5]; Day 2): 95.3%
- Residual Ratio (%) ([5]; Day 4): 72.9%
- Residual Ratio (%) ([5]; Day 7): 69.8%

Molecule: (5R), (6Z)-6-(1-Methyl-2-thiazol-2-yl-1H-imidazol-4-ylmethylene)-7-oxo-4-thia-1-aza-bicyclo[3.2.0]hept-2-ene-2-carboxylic Acid Sodium Salt [Example 5]
- IC50 [1]: 5.6 nM
- IC50 [2]: 68 nM
- IC50 [3]: 5.2 nM
- IC50 [4]: 260 nM

Molecule: (5R), (6Z)-6-(3,1′-Dimethyl-3H,1′H-[2,4′]biimidazolyl-4-ylmethylene)-7-oxo-4-thia-1-aza-bicyclo[3.2.0]hept-2-ene-2-carboxylic Acid Sodium Salt [Example 2]
- IC50 [1]: 2.1 nM
- IC50 [2]: 6 nM
- IC50 [3]: 4.1 nM
- IC50 [4]: 250 nM
